What was measured:
KCC2 protein = assay: KCC2 immuno-staining morphometry of spinal cord dorsal horn; assay type: in vivo, mouse; conditions: KP 10 mg/kg; nerve constriction injury and CFA inflammatory pain models
Method: All mice were deeply anaesthetized with isoflurane and then transcardially perfused with ice-cold 4% paraformaldehyde in 0.1 M phosphate buffer, pH 7.4 (4% PFA). Dissected spinal cord samples were then post-fixed overnight in 4% PFA at 4° C., cryoprotected in a 20% sucrose solution in PBS at 4° C., frozen in Tissue-Tek OCT (Sakura), and stored at −80° C. until sectioning. Samples were sectioned at 20 μm using a cryostat (Microm HM 505N). The sections were blocked with 2% bovine serum albumin (BSA) in PBS with 0.3% Triton X-100 (Blocking solution) at room temperature for 1 h. The sections were treated with primary antibody in blocking solution at 4° C. overnight. The sections were washed three times followed by secondary antibody treatment at 4° C. for 2 hours. Anti-KCC2 antibody was validated as described above for immuno-cytochemistry. The goat anti-rabbit IgG Alexa Fluor 488 was obtained from Invitrogen (A-11008). […]
With the aforementioned findings and in view of the SCDH as the likely site of analgesic action of KP (Coull et al., 2003, Nature 424:938-942; Gagnon et al., 2013, Nat Med 19:1524-1528), SCDH KCC2 expression and function in nerve injury and response to KP was assessed. […] SCDH KCC2 protein expression was measured morphometrically after KCC2 immunolabeling using SCDH laminae I-II as the region-of-interest (FIG. 5B).

ß-cat = ß-cat nuclear translocation in primary neurons, immunolabeling; assay type: cell-based, rat; conditions: KP treatment
Method: Immunocytochemistry labeling of cultured neuronal cells was carried out as previously described (Liedtke et al., 2013, Small 9, 1066-1075; Yeo et al., 2009, J Neurosci 29:14652-14662; Yeo et al., 2013, Proc Natl Acad Sci USA 110:4315-4320). Primary antibodies are shown in the antibody table. Anti-KCC2 primary antibodies were validated with developing rat primary cortical neurons; we observed an increase in staining pattern that tightly matched increase of KCC2 mRNA expression (Liedtke et al., 2013, Small 9:1066-1075; Yeo et al., 2009, J Neurosci 29:14652-14662.; Yeo et al., 2013, Proc Natl Acad Sci USA 110:4315-4320). Secondary antibodies used were goat anti-mouse IgG Alexa Fluor 594 (Invitrogen A11032) and goat anti-rabbit IgG Alexa Fluor 594 (Invitrogen A11012). DAPI stain was obtained from Sigma Aldrich (D9542). Stained cells were observed using an inverted confocal microscope (Zeiss LSM780).
We obtained stacks of images recorded at 0.35 μm intervals through separate channels with a 63× oil-immersion lens (NA, 1.40, refraction index, 1.45). Zen software (Zeiss) was used to construct composite images from each optical series by combining the images recorded through the different channels, and the same software was used to obtain Z projection images (image resolution: 1024×1024 pixels; pixel size: 0.11 μm). ImageJ was used for morphometry. […]

O=C1Cc2c([nH]c3ccc(Br)cc23)-c2ccccc2N1 [kenpaullone, 9-bromo-7,12-dihydro-indolo [3,2-d] [1]benzazepin-6(5H)-one]
KCC2 protein expression in SCDH (KCC2 protein): increases KCC2 protein expression
catenin translocation into the nucleus (FIG. 9) (ß-cat): significantly increases
